# Test results: patent US12209141B2, “Dipeptide compounds and uses thereof” (HUAHAI US INC., priority 2018, dated 2025)
# Legend:
# [1] = test system: venous thrombosis in SD Rat; test: Venous thrombosis in rat; format: in vivo; set-up: wet weight of thrombus: unit not given here; details: for antithrombotic effect (in words): single oral dose of 10 mg/kg
# Text: Animals: SD Rat (Weight 180˜210 g, Sex Male)
# Solution preparation: Weigh proper amount of the test chemical, dissolved in DMSO to give the stock solutions, serial dilution with water then provided the required concentration of administration dosage.
# Experimental procedures: After 3-day adaptive breeding, male Sprague-Dawley rats were randomly divided into groups: model group, positive drug group and compound groups, with 4˜6 rats in each group.
# The rats in the model group were given either intravenous injection or intragastric administration with equivalent solvent, those in the positive or compound group were given either intravenous injection or intragastric administration in a dose of 10 mg/kg.
# The left renal vein was ligated with a silk thread to initiate thrombus formation. After 6 hours of stasis, another ligature was made at the distal side 2 cm apart from the first, thrombus formed inside the vessel was carefully removed, blotted on wet filter paper and weighed.
# [2] = Solubility tests at different pH values; format: physicochemical; details: aqueous buffer, thermodynamic from solid, 37° C.
# Description: Weigh proper amount of the test chemical into buffered salt solutions with different pH value (4.0, 6.3, 7.4 and 9.0), the suspension was shaken at 37° C. for 1 hour. Precipitated and undissolved residues were removed by centrifugation. The content of the supernatant was determined by HPLC to analyze the solubility of the test chemical.
# [3] = Pharmacokinetics in dog; format: in vivo, Beagle Dog; details: single i.v. dose of 2 mg/kg
# Description: (§1) Intragastric solution preparation: proper amount of the test chemical was weighed, and dissolved in DMSO to give the stock solution, which was then diluted serially with 0.5% CMC-Na solution to the required concentration of administration dosage.
# (§2) IV solution preparation: proper amount of compound (V) was weighed, and dissolved in normal saline to give the stock solution, which was then diluted serially to the required concentration of administration dosage.
# Experimental procedures: After 3-day adaptive breeding, male dogs were divided into groups randomly with 4 dogs in each group.
# (§3) Dogs were orally given 5 mg/kg of the test compound via gavage for oral study or given 2 mg/kg of compound (V) via the femoral vein for intravenous (i.v.) study. Blood samples were collected at 15 min, 30 min, 1 h, 1.5 h, 2 h, 4 h, 6 h, 8 h, 10 h, and 24 h after dosing and were analyzed by LC-MS/MS after pretreatment.
# (§4) WPS software was used to calculate the mean value, standard deviation, precision and accuracy of each sample.
# [4] = Pharmacokinetics in rat; format: in vivo, SD Rat; details: single i.v. dose of 2 mg/kg
# Description: Animals: SD Rat (Weight 200˜300 g, Sex Male)
# as §1, §2
# Experimental procedures: After 3-day adaptive breeding, male Sprague-Dawley rats were divided into groups randomly with 4 rats in each group.
# as §3, with “Rats were” for “Dogs were”, “given 10” for “given 5”, “collected from the orbitat” for “collected”
# as §4
# [5] = Plasma stability (incubation in rat whole blood, conversion to compound (V)); format: in vitro ADME; details: study period of 8 h
# Description: An aliquot of 1 ml of rat whole blood was mixed with 50 ul of stock solution containing the test substance in DMSO (1 mg/ml) to obtain final concentration of 50 ug/ml. The mixture was incubated at 37° C. Samples were taken at time points of 0 min, 30 min, 1 h, 2 h, 4 h and 8 h, and then added to an organic solvent to terminate the reaction. After pretreatment each sample was analyzed by LC-MS/MS to determine the plasma concentrations of compound (III), compound (IV) and compound (V). […] The hydrolysis of the carbamate bond of each compound was accomplished within 30 minutes
# [6] = single oral administration 10 mg/kg, Model 28.4 ± 7.5
# [7] = male, Sprague-Dawley, plasma, iv
# [8] = single intravenous injection 10 mg/kg, compared with dabigatran, Model 22.7 ± 3.5
# [9] = single intravenous injection 10 mg/kg, compared with melagatran, Model 19.6 ± 3.7
smiles,measurement,setting,value
"CCOC(=O)CN[C@H](CC(C)C)C(=O)N1CCC[C@H]1C(=O)NCc1ccc(C(N)=NC(=O)OCc2oc(=O)oc2C)cc1.Cl [Compound 1, N-[(ethoxy)carbonyl]methyl-D-leucyl-L-prolyl-{4-[N′-(((5-methyl-2-oxo-1,3-dioxol-4-yl)methyl)oxycarbonyl)carbamimidoyl]benzyl} amide hydrochloride]",antithrombotic effect (in words),[1]; rat,significant antithrombotic effect
same,wet weight of thrombus,[1]; [6],10.8 ± 5.1
same,solubility at 1 h,"[2]; pH 4.0, buffered salt solution",7720 µM
same,solubility at 1 h,"[2]; pH 6.3, buffered salt solution",3990 µM
same,solubility at 1 h,"[2]; pH 7.4, buffered salt solution",613 µM
same,solubility at 1 h,"[2]; pH 9.0, buffered salt solution",196 µM
"CCOC(=O)CN[C@H](CC(C)C)C(=O)N1CCC[C@H]1C(=O)NCc1ccc(C(N)=NC(=O)OCCOC)cc1.Cl [Compound 2, N-[(ethoxy)carbonyl]methyl-D-leucyl-L-prolyl-{4-[N′-((2-(methoxy)ethoxy)carbonyl)carbamimidoyl]benzyl}amide hydrochloride]",antithrombotic effect (in words),[1]; rat,significant antithrombotic effect
same,wet weight of thrombus,[1]; [6],16.7 ± 8.0
"CCOCCOCCOC(=O)N=C(N)c1ccc(CNC(=O)[C@@H]2CCCN2C(=O)[C@@H](CC(C)C)NCC(=O)OCC)cc1.Cl [Compound 6, N-[(ethoxy)carbonyl]methyl-D-leucyl-L-prolyl-{4-[N′-((2-(2-(ethoxy)ethoxy)ethoxy)carbonyl)carbamimidoyl]benzyl} amide hydrochloride]",antithrombotic effect (in words),[1]; rat,significant antithrombotic effect
same,wet weight of thrombus,[1]; [6],19.7 ± 6.4
"CCOC(=O)CN[C@H](CC(C)C)C(=O)N1CCC[C@H]1C(=O)NCc1ccc(C(N)=NC(=O)OCCOCCOCc2ccccc2)cc1.Cl [Compound 8, N-[(ethoxy)carbonyl]methyl-D-leucyl-L-prolyl-{4-[N′-((2-(2-(benzyloxy)ethoxy)ethoxy)carbonyl)carbamimidoyl]benzyl} amide hydrochloride]",antithrombotic effect (in words),[1]; rat,significant antithrombotic effect
same,wet weight of thrombus,[1]; [6],12.5 ± 3.1
"CCOCCCOC(=O)N=C(N)c1ccc(CNC(=O)[C@@H]2CCCN2C(=O)[C@@H](CC(C)C)NCC(=O)OCC)cc1.Cl [Compound 10, N-[(ethoxy)carbonyl]methyl-D-leucyl-L-prolyl-{4-[N′-((3-(ethoxy)propoxy)carbonyl)carbamimidoyl]benzyl} amide hydrochloride]",antithrombotic effect (in words),[1]; rat,significant antithrombotic effect
same,wet weight of thrombus,[1]; [6],14.6 ± 3.6
same,solubility at 1 h,"[2]; pH 4.0, buffered salt solution",6520 µM
same,solubility at 1 h,"[2]; pH 6.3, buffered salt solution",3350 µM
same,solubility at 1 h,"[2]; pH 7.4, buffered salt solution",495 µM
same,solubility at 1 h,"[2]; pH 9.0, buffered salt solution",119 µM
"CCOC(=O)CN[C@H](CC(C)C)C(=O)N1CCC[C@H]1C(=O)NCc1ccc(C(N)=NC(=O)CC(C)C(=O)OCC)cc1.Cl (stereo partly drawn) [Compound 12, N-[(ethoxy)carbonyl]methyl-D-leucyl-L-prolyl-{4-[N′-((2-(ethoxycarbonyl)propyl)carbonyl)carbamimidoyl]benzyl} amide hydrochloride]",antithrombotic effect (in words),[1]; rat,significant antithrombotic effect
same,wet weight of thrombus,[1]; [6],20.5 ± 4.7
"CCCCCCOC(=O)N=C(N)c1ccc(CNC(=O)[C@@H]2CCCN2C(=O)[C@@H](CC(C)C)NCC(=O)OCC)cc1.Cl [Compound 17, N-[(ethoxy)carbonyl]methyl-D-leucyl-L-prolyl-{4-[N′-(hexyloxycarbonyl)carbamimidoyl]benzyl} amide hydrochloride]",antithrombotic effect (in words),[1]; rat,significant antithrombotic effect
same,wet weight of thrombus,[1]; [6],11.0 ± 5.5
same,solubility at 1 h,"[2]; pH 4.0, buffered salt solution",5840 µM
same,solubility at 1 h,"[2]; pH 6.3, buffered salt solution",3720 µM
same,solubility at 1 h,"[2]; pH 7.4, buffered salt solution",693 µM
same,solubility at 1 h,"[2]; pH 9.0, buffered salt solution",147 µM
"CCCCCCOC(=O)N=C(N)c1ccc(CNC(=O)[C@@H]2CCCN2C(=O)[C@@H](CC(C)C)NCC(=O)OC(C)(C)C)cc1.Cl [Compound 19, N-[(tert-butyloxy)carbonyl]methyl-D-leucyl-L-prolyl-{4-[N′-(hexyloxycarbonyl)carbamimidoyl]benzyl} amide hydrochloride]",antithrombotic effect (in words),[1]; rat,significant antithrombotic effect
same,wet weight of thrombus,[1]; [6],13.9 ± 6.0
CC(C)C[C@@H](NCC(=O)O)C(=O)N1CCC[C@H]1C(=O)NCc1ccc(C(=N)N)cc1 [Compound of Formula (V)],AUC(0-inf),"[3]; male, beagle, plasma, iv",4340 ng·h/mL
same,Cmax,"[3]; male, beagle, plasma, iv",4040 ng/mL
same,half-life,"[3]; male, beagle, plasma, iv",11.8 h
same,CLz/F,[3],7.9 mL/min/kg
same,AUC(0-inf),[4]; [7],2960 ng·h/mL
same,Cmax,[4]; [7],4720 ng/mL
same,half-life,[4]; [7],5.02 h
same,CLz/F,[4],11.6 mL/min/kg
same,anti-thrombotic activity (in words),"[1]; rat, single injection at 10 mg/kg",superior anti-thrombotic activity compared to dabigatran and melagatran
same,wet weight of thrombus,[1]; [8],13.3 ± 1.5
same,wet weight of thrombus,[1]; [9],6.8 ± 5.0
same,stability in plasma stability experiment (in words),[5],"substantially stable, with no significant degradation"
"[H]/N=C(/N)c1ccc(NCc2nc3cc(C(=O)N(CCC(=O)O)c4ccccn4)ccc3n2C)cc1 [Dabigatran, reference compound]",wet weight of thrombus,[1]; [8],15.7 ± 4.0
"N=C(N)c1ccc(CNC(=O)[C@@H]2CCN2C(=O)[C@H](NCC(=O)O)C2CCCCC2)cc1 [Melagatran, reference compound]",wet weight of thrombus,[1]; [9],7.8 ± 7.6
